According to US20230339927A1, “ATR INHIBITORS AND USES THEREOF” (ANTENGENE DISCOVERY LIMITED, priority 2020, published 2023):

Assays:
[1] = target: T1, ATR kinase (Homo sapiens, UniProt Q13535); experiment: ATR inhibition assay (mobility shift assay, FAM-RAD17 phosphorylation); format: biochemical; conditions: substrate FAM-RAD17, ATR kinase (Eurofins)
T1 construct: purchased Eurofins 14-953
Description: Assay 1: ATR Inhibition Assay
The assay was developed and conducted at Chempartner. All the test compounds were dissolved in 100% DMSO at concentration of 20 mM, then prepare compounds and conducted the assay as follows:
1) Transfer 80 µl20 mM compound to 40 µl of 100% DMSO in a 96-well plate.
2) Serially dilute the compound by transferring 20 µl to 60 µl of 100% DMSO in the next well and so forth for a total of 10 concentrations.
3) Add 100 µl of 100% DMSO to two empty wells for no compound control and no enzyme control in the same 96-well plate. Mark the plate as source plate.
4) Transfer 40 µl of compound from source plate to a new 384-well plate as the intermediate plate.
5) Transfer 60 nl compounds to assay plate by Echo.
No. D14JP007N) into Kinase base buffer (50 mM HEPES, pH 7.5; 0.0015% Brij-35; 0.01% Triton) to prepare 2x enzyme solution, then add 10 µl of 2x enzyme solution to each well of the 384-well assay plate, incubate at room temperature for 10 min.
8) Incubate at 28° C. for specified period of time. Add 40 µl of stop buffer (100 mM HEPES, pH 7.5; 0.015% Brij-35; 0.2% Coating Reagent #3; 50 mM EDTA) to stop reaction.
9) Collect data on Caliper. Convert conversion values to inhibition values.
wherein “max” stands for DMSO control; “min” stands for low control.
Fit the data in XLFit excel add-in version 5.4.0.8 to obtain IC50 values. Equation used is: […]
wherein X means concentration in a format not transformed to logarithms.

[2] = tested on: LoVo (CCL-229) human colorectal cancer cells; experiment: Tumor cell anti-proliferation assay (CTG assay); format: cell-based; conditions: 96 h incubation, CellTiter-Glo, IC50 (Y=50%)
From the text: Assay 2: Tumor Cell Anti-proliferation Assay (CTG Assay)
Human colorectal cancer cells HT-29 (HTB-38) and LoVo (CCL-229) were selected for the CTG assay, the two cell lines were originally obtained from the American Type Culture Collection (ATCC). Add FBS and appropriate additives into base medium to prepare complete medium, then briefly rinse the cell layer with 0.25% (w/v) Trypsin-0.038% (w/v) EDTA solution to remove all traces of serum that contains trypsin inhibitor, after that, add appropriate volume of Trypsin-EDTA solution to flask and observe cells under an inverted microscope until cell layer is dispersed, at last, add appropriate volume of complete growth medium and aspirate cells by gently pipetting. Collect and count numbers with Vi-cell XR and adjust cell density, seed cells into 96-well opaque-walled clear bottom tissue-culture treated plates in the CO2 incubator for 20-24 hours. All the test compounds will be at 10 mM in DMSO. Compounds are then added to the cell media in 3-fold serial dilutions, the final DMSO concentration is 0.5%. Incubate plates for 96 h at 5% CO2, 37° C. Before the measurement, transfer the appropriate volume of CellTiter-Glo Buffer into the amber bottle containing CellTiter-Glo substrate to reconstitute the lyophilized enzyme/substrate mixture, mix gently, this forms the CellTiter-Glo Reagent (Promega Cat. No. G7573). Equilibrate the plate and its contents to room temperature for approximately 30 minutes, then add 100 µL of CellTiter-Glo Reagent to the assay plate, mix contents for 2 minutes on an orbital shaker to induce cell lysis, incubate at room temperature for 10 minutes to stabilize luminescent signal, at last paste the clear bottom with white back seal and record luminescence with Enspire. IC50 and GI50 values were calculated with XLFit curve fitting software using 4 Parameter Logistic Model Y=Bottom + (Top-Bottom)/(1+(IC50/X)^HillSlope).
The following Table 3 provides the IC50 (Y=50%) values for exemplary compounds of Formula (I).

T1 sequence (Q13535 whole entry): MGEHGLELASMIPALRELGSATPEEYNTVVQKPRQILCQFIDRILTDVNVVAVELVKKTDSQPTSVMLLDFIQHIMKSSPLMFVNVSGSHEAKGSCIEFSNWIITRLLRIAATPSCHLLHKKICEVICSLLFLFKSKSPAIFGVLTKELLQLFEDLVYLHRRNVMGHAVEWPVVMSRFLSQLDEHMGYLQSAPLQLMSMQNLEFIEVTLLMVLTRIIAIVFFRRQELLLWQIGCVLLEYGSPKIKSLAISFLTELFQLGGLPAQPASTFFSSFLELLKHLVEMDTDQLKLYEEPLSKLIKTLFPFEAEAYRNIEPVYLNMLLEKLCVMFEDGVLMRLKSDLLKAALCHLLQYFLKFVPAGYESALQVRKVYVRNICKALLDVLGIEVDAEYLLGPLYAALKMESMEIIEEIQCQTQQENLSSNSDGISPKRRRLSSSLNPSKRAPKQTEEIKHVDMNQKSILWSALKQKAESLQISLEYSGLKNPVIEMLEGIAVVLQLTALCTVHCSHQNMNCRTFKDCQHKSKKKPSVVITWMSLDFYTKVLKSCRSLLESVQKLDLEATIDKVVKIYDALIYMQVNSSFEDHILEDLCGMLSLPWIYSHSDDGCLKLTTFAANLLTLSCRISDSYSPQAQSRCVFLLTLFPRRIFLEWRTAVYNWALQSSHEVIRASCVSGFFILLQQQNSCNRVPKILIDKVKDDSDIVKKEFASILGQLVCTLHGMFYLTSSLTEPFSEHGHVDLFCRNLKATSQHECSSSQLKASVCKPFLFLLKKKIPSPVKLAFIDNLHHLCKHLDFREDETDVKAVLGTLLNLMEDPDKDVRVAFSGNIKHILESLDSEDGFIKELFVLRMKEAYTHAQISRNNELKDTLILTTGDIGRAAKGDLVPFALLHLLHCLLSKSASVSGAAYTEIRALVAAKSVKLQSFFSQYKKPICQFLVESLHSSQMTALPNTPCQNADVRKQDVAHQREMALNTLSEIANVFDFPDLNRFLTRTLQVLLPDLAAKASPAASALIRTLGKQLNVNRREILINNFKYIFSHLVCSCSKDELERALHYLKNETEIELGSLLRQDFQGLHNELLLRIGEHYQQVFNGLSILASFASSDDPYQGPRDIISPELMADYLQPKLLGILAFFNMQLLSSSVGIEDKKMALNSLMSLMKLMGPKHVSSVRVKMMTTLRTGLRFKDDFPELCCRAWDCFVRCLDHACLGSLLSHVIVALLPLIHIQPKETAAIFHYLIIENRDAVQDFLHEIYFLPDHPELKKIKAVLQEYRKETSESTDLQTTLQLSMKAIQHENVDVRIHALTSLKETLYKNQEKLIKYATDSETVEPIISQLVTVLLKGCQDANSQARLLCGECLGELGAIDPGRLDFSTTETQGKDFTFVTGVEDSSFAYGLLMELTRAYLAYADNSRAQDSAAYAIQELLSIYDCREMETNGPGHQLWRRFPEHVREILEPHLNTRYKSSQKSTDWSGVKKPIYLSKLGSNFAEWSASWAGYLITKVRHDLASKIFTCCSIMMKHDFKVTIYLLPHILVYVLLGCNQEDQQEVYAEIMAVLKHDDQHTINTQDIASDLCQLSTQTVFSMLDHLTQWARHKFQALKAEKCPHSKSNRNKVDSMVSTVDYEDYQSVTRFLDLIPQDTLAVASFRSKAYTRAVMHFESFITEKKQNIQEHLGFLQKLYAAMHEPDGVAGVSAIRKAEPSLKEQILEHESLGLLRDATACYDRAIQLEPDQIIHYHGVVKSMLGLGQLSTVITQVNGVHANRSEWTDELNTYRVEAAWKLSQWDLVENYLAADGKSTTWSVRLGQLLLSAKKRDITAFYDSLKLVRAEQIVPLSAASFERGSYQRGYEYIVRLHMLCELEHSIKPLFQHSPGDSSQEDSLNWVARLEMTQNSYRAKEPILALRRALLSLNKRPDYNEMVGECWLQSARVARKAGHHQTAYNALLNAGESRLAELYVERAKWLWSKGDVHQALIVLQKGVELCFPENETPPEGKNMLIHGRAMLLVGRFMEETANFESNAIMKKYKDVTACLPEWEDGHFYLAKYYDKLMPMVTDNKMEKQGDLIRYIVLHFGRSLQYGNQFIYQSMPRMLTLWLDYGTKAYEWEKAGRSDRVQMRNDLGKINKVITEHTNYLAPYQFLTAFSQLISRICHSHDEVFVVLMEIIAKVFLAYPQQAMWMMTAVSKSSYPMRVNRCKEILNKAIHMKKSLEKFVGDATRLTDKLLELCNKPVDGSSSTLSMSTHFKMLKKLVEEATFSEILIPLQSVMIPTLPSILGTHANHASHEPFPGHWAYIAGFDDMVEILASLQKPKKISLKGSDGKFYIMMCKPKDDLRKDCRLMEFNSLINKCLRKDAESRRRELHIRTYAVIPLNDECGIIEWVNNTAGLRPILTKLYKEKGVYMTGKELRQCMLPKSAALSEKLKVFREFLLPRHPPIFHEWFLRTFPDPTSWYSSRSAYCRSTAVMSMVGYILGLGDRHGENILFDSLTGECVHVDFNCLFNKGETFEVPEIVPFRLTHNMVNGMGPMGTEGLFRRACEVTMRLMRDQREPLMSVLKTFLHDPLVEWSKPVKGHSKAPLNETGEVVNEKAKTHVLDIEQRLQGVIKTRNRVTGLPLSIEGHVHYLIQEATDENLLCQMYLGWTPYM
T1 sequence (Q8WXE1 whole entry partner): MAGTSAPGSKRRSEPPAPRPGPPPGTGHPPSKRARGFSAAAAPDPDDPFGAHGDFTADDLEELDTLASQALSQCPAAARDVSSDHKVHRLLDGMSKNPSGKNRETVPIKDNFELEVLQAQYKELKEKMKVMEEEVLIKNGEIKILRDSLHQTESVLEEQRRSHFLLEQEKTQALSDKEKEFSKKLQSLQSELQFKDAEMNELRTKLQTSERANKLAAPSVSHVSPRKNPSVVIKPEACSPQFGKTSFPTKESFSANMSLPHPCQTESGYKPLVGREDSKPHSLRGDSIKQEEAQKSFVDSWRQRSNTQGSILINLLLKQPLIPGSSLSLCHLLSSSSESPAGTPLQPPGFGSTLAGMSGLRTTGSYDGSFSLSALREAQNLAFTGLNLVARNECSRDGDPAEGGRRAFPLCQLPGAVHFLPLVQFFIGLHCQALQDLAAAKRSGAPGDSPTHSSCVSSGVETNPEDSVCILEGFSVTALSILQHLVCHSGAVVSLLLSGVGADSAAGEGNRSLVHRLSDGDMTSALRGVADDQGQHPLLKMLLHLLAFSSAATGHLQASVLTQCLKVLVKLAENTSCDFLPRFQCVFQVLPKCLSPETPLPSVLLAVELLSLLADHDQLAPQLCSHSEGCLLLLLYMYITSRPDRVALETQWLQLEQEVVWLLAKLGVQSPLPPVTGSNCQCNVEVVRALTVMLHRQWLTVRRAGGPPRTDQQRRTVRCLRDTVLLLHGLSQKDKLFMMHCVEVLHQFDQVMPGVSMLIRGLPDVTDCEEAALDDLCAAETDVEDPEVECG

Compound | IC50 [1] [nM] | IC50 [2] [nM]
C[C@@H]1COCCN1c1cc(C(C)(C)C#N)cc(Nc2ccn[nH]2)n1 [Compound 24, (R)-2-(2-((1H-pyrazol-5-yl)amino)-6-(3-methylmorpholino)pyridin-4-yl)-2-methylpropanenitrile] | 17 | 428
Cc1cc(Nc2cc(C(C)(C)C#N)cc(N3CCOC[C@H]3C)n2)[nH]n1 [Compound 25, 2-methyl-2-{2-[(3-methyl-1H-pyrazol-5-yl)amino]-6-[(3R)-3-methylmorpholin-4-yl]pyridin-4-yl}propanenitrile] | 11.8 | 309
C[C@@H]1COCCN1c1cc(C(C)(C)S(C)(=O)=O)cc(Nc2ccn[nH]2)n1 [Compound 26, (R)-6-(3-methylmorpholino)-4-(2-(methylsulfonyl)propan-2-yl)-N-(1H-pyrazol-5-yl)pyridin-2-amine] | 22 | 517
Cc1cc(Nc2cc(C(C)(C)S(C)(=O)=O)cc(N3CCOC[C@H]3C)n2)[nH]n1 [Compound 27, 4-(2-methanesulfonylpropan-2-yl)-N-(3-methyl-1H-pyrazol-5-yl)-6-[(3R)-3-methylmorpholin-4-yl]pyridin-2-amine] | 15.7 | 564
C[C@@H]1COCCN1c1cc(C(C)(C)C#N)nc(Nc2ccn[nH]2)n1 [Compound 28, (R)-2-(2-((1H-pyrazol-5-yl)amino)-6-(3-methylmorpholino)pyrimidin-4-yl)-2-methylpropanenitrile] | 30.4 | 406
Cc1cc(Nc2cc(C3(C#N)CC3)cc(N3CCOC[C@H]3C)n2)[nH]n1 [Compound 35, 1-{2-[(3-methyl-1H-pyrazol-5-yl)amino]-6-[(3R)-3-methylmorpholin-4-yl]pyridin-4-yl}cyclopropane-1-carbonitrile] | 33.3 | 718
C[C@@H]1COCCN1c1cc(C2(C#N)CCCCC2)cc(Nc2ccn[nH]2)n1 [Compound 38, 1-{2-[(3R)-3-methylmorpholin-4-yl]-6-[(1H-pyrazol-5-yl)amino]pyridin-4-yl} cyclohexane-1-carbonitrile] | 12.3 | 492
C[C@@H]1COCCN1c1cc(C2(C#N)CCCCC2)nc(Nc2ccn[nH]2)n1 [Compound 41, (R)-1-(2-((1H-pyrazol-5-yl)amino)-6-(3-methylmorpholino)pyrimidin-4-yl)cyclohexane-1-carbonitrile] | 2.5 | 370
C[C@@H]1COCCN1c1cc(C2(C#N)CCOCC2)nc(Nc2ccn[nH]2)n1 [Compound 42, (R)-4-(2-((1H-pyrazol-5-yl)amino)-6-(3-methylmorpholino)pyrimidin-4-yl) tetrahydro-2H-pyran-4-carbonitrile] | 19.7 | 640
C[C@@H]1COCCN1c1cc(C2(O)CCCCC2)cc(Nc2ccn[nH]2)n1 [Compound 43, (R)-1-(2-((1H-pyrazol-5-yl)amino)-6-(3-methylmorpholino)pyridin-4-yl) cyclohexan-1-ol] | 52.7 | 653
